Key:
Assay type in all cases: in vivo
estrogen receptor alpha = assay: Estrogen receptor alpha mRNA and protein expression in uterus of climacteric mouse model; conditions: OVX mouse, 10 mg/kg/day oral, 12 weeks; for decrease of the estrogen receptor alpha protein in uterus section: immunohistochemistry, vs. OVX negative control (FIG. 7b); for decrease of mRNA expression of the estrogen receptor alpha in uterus: vs. OVX negative control (FIG. 7a)
Procedure: (§1) A 10-week-old ovariectomized ddY female mouse (OVX mouse) was used as a climacteric animal model to evaluate the in vivo efficacy of Loganin (ovariectomy after 8 weeks and 2 weeks of additional feeding for recovering conditions). Sham mouse group cut the abdomen open without ovariectomy (normal control group) was used as control group, and OVX mouse group in which physiological saline alone was administered to ovariectomized mice (negative control group) and SrCl2 mouse group in which a single compound, strontium chloride (SrCl2), was orally injected at a dose of 10 mg/kg/day (comparison group of […] compound administration) were used. 10-week-old Sham-operated and ovariectomized ddY female mice were purchased from Central Laboratory Animals Co. and transferred to a clean animal breeding area after a 1-week purifying period in the quarantine room of Experimental Animal Center in Ajou University. The weight of each mouse was measured and group separation was performed so that there was no statistically significant weight difference between the experimental groups. For the experiment, a test solution of Loganin was prepared as an aqueous solution and in order to bring in the laboratory animal center, a sterilization operation was carried out by irradiating with a gamma ray by a radiation irradiation professional company, Soyagreentec Co., Ltd. In the test group, Loganin was orally injected at a dose of 10 mg/kg/day for 12 weeks and blood estrogen level, estrogen receptor alpha expression level in uterus tissue, uterine size, body weight, and fat cell size of liver and abdominal adipose tissue were measured and analyzed.
An ordinary female climacteric symptom results in a remarkable reduction in estrogen receptors in uterine tissue cells due to estrogen decrease. The estrogen receptor is activated by estradiol (17β-estradiol, E2) and has two classes of estrogen receptor alpha and estrogen receptor beta. In the uterus, the estrogen receptor alpha plays a more important role than the estrogen receptor beta, and during climacterium, a marked reduction in the estrogen receptor alpha causes contraction and degeneration of the uterus. The mRNA expression level of the estrogen receptor alpha gene and the estrogen receptor alpha protein expression level by immunohistochemistry of section of the uterus were analyzed after 12 weeks of administration of Loganin to climacteric mouse model followed by extirpating uterus.

[1] = test system: ovariectomized ddY female mouse (OVX mouse); assay: Blood estradiol, progesterone and cortisol by ELISA in female climacteric (OVX) mouse model; conditions: 10 mg/kg/day oral, 12 weeks; for decrease level of estradiol (17β-estradiol, E2) in the blood: vs. OVX negative control (FIG. 6a); for decrease level of progesterone in the blood: vs. OVX negative control (FIG. 6b)
Procedure: as §1
An ordinary female climacteric symptom results in a significant reduction in female hormones, i.e. estrogen and progesterone. The amount of estradiol (17β-estradiol, E2) and progesterone which are estrogen in the blood was measured by ELISA after 12 weeks of administration of Loganin to female climacteric mouse model.

[2] = test system: ovariectomized ddY female mouse (OVX mouse); assay: Fat accumulation in liver and fat cell size in abdominal adipose tissue (H & E staining) in climacteric mouse model; conditions: 10 mg/kg/day oral, 12 weeks; for fat accumulation in the liver: H & E staining (FIG. 10a); for increase in fat cell size in the abdominal adipose tissue: H & E staining (FIG. 10b)
Procedure: as §1
In general, when estrogen is reduced in female climacterium, new estrogen is produced from adipocytes to offset the estrogen deficiency. In this process, more fat cells are produced and can cause abdominal obesity. In other words, fat accumulation in the liver and fat cell size increase in abdominal adipose tissue are caused by the increase of insulin and leptin, which are hormone proteins related to lipid metabolism. Liver and abdominal adipose tissues of mice were extirpated and H & E stained after 12 weeks of administration of Loganin to female climacteric mouse model.

[3] = test system: ovariectomized ddY female mouse (OVX mouse); assay: Uterine contraction and degeneration (shape, size, thickness, weight) in climacteric mouse model; conditions: 10 mg/kg/day oral, 12 weeks; for outward shape and size of the uterus: vs. OVX negative control (FIG. 8a); for thickness of the H & E-stained uterine section: vs. OVX negative control (FIG. 8b); for weight of the uterus: vs. OVX negative control (FIG. 8c)
Procedure: as §1
An ordinary female climacteric symptom results in uterine contraction and degeneration due to estrogen decrease. The shape, size, thickness and weight of the uterus were observed after 12 weeks of administration of Loganin to female climacteric mouse model followed by extirpating uterus. When compared to normal Sham mouse without ovariectomy, the uterus was small (FIG. 8a), the thickness of the section was thin (FIG. 8b) and the uterine weight was light (FIG. 8c) in ovariectomized OVX mouse.

[4] = test system: ovariectomized ddY female mouse (OVX mouse); assay: Body weight and blood insulin and leptin (ELISA) in climacteric mouse model; conditions: 10 mg/kg/day oral, 12 weeks; for increase in insulin in the blood / increase in leptin in the blood: ELISA; for increase in insulin in the blood: vs. OVX negative control (FIG. 9b); for increase in leptin in the blood: vs. OVX negative control (FIG. 9c); for weight gain (body weight): vs. OVX negative control (FIG. 9a)
Procedure: as §1
An ordinary female climacteric symptom results in weight gain due to estrogen decrease. The changes in body weight of mice and the presence of insulin and leptin, the metabolic hormone proteins, were measured by ELISA after 12 weeks of administration of Loganin to female climacteric mouse model.

Row | Compound | decrease of the estrogen receptor alpha protein in uterus section (estrogen receptor alpha) | decrease of mRNA expression of the estrogen receptor alpha in uterus (estrogen receptor alpha) | decrease level of estradiol (17β-estradiol, E2) in the blood [1] | decrease level of progesterone in the blood [1] | fat accumulation in the liver [2] | increase in fat cell size in the abdominal adipose tissue [2] | outward shape and size of the uterus [3] | thickness of the H & E-stained uterine section [3] | weight of the uterus [3] | increase in insulin in the blood [4] | increase in leptin in the blood [4] | weight gain (body weight) [4]
1 | [Cl-].[Cl-].[Sr+2] [SrCl2, strontium chloride] | no difference with OVX mouse | no difference with OVX mouse | no difference with OVX mouse | no difference with OVX mouse | no difference with OVX mouse | no difference with OVX mouse | no difference with OVX mouse | no difference with OVX mouse | no difference with OVX mouse | no difference with OVX mouse | no difference with OVX mouse | no difference with OVX mouse
2 | COC(=O)C1=CO[C@@H](O[C@@H]2O[C@H](CO)[C@@H](O)[C@H](O)[C@H]2O)[C@@H]2[C@@H](C)[C@@H](O)C[C@H]12 [Loganin] | significantly inhibited | significantly inhibited | significantly inhibited | significantly inhibited | remarkably inhibited | remarkably inhibited | significantly inhibited | significantly inhibited | significantly inhibited | significantly inhibited | significantly inhibited | significantly inhibited
